From paper PMC2820425 (Molecular Biology of the Cell, 2010)

Columns and labels:
[1] = molecular target: T1, rat dynamin (Rattus norvegicus, UniProt P21575); experiment: […] release from [γ-32P]GTP, charcoal assay; format: biochemical; conditions: 1 mM GTP, 150 mM NaCl, with or without lipid; labelled compound
T1 sequence (P21575 1-864): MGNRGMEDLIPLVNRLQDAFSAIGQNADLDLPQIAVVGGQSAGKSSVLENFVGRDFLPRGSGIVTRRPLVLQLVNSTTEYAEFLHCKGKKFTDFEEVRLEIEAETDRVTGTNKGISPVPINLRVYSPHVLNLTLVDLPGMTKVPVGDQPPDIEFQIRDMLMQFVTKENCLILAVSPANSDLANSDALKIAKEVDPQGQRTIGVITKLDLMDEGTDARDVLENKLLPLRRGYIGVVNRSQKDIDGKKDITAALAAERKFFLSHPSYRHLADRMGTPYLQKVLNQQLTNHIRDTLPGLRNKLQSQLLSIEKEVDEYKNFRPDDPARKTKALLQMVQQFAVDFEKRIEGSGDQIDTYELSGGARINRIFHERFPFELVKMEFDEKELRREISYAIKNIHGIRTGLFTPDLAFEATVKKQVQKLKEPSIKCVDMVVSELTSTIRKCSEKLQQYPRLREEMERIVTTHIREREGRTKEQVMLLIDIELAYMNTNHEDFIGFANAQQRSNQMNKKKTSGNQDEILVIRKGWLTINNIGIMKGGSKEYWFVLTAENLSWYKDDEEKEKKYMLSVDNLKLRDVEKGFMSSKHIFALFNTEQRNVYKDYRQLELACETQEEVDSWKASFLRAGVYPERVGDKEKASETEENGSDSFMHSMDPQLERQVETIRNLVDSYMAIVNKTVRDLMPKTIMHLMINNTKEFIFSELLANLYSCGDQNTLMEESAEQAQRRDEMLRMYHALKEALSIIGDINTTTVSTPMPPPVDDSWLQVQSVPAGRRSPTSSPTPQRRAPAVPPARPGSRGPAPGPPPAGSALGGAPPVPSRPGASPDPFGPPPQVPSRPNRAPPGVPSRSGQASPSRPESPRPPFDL

[2] = molecular target: T2, DYN-1 (Caenorhabditis elegans, UniProt P39055); experiment: […] release from [γ-32P]GTP, charcoal assay; format: biochemical; conditions: 1 mM GTP, 150 mM NaCl, with or without lipid; labelled compound
T2 sequence (P39055 1-830): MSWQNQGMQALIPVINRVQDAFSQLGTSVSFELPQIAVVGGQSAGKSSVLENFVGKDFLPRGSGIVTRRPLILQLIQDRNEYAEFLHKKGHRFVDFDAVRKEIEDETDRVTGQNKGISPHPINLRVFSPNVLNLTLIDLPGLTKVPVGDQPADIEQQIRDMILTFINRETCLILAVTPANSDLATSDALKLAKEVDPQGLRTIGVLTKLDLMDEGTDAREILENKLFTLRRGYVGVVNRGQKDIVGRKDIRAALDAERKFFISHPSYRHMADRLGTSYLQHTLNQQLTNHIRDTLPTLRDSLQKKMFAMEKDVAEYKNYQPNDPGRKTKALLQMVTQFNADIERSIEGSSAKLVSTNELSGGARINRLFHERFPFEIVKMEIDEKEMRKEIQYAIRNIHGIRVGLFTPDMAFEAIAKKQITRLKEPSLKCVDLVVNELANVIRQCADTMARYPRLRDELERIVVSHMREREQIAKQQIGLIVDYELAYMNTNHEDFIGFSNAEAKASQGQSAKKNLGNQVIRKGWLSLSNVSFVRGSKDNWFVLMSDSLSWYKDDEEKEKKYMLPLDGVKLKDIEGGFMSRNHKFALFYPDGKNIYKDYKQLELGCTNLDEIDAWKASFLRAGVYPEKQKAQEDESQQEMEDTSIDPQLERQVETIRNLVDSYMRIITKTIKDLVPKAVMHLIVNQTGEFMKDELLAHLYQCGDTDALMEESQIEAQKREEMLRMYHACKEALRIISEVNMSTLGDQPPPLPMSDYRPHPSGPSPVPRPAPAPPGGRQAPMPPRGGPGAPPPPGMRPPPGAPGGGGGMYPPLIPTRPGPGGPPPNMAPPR

[3] = molecular target: the molecule itself; experiment: cryo-TEM of protein incubated with liposomes

Nc1nc2c(ncn2[C@@H]2O[C@H](COP(=O)(O)OP(=O)(O)OP(=O)(O)O)[C@@H](O)[C@H]2O)c(=O)[nH]1 [GTP]
32P release from [γ-32P]GTP, charcoal assay [1]: DYN-1 displayed a low basal-level GTP hydrolysis activity as rat dynamin did | 32P release from [γ-32P]GTP, charcoal assay [2]: C. elegans DYN-1 displayed a low basal-level GTP hydrolysis activity

B1: recombinant DYN-1(G40E) purified from SF21 insect cells (natural protein, C. elegans, UniProt P39055 1-830, looked up)
chain: MSWQNQGMQALIPVINRVQDAFSQLGTSVSFELPQIAVVEGQSAGKSSVLENFVGKDFLPRGSGIVTRRPLILQLIQDRNEYAEFLHKKGHRFVDFDAVRKEIEDETDRVTGQNKGISPHPINLRVFSPNVLNLTLIDLPGLTKVPVGDQPADIEQQIRDMILTFINRETCLILAVTPANSDLATSDALKLAKEVDPQGLRTIGVLTKLDLMDEGTDAREILENKLFTLRRGYVGVVNRGQKDIVGRKDIRAALDAERKFFISHPSYRHMADRLGTSYLQHTLNQQLTNHIRDTLPTLRDSLQKKMFAMEKDVAEYKNYQPNDPGRKTKALLQMVTQFNADIERSIEGSSAKLVSTNELSGGARINRLFHERFPFEIVKMEIDEKEMRKEIQYAIRNIHGIRVGLFTPDMAFEAIAKKQITRLKEPSLKCVDLVVNELANVIRQCADTMARYPRLRDELERIVVSHMREREQIAKQQIGLIVDYELAYMNTNHEDFIGFSNAEAKASQGQSAKKNLGNQVIRKGWLSLSNVSFVRGSKDNWFVLMSDSLSWYKDDEEKEKKYMLPLDGVKLKDIEGGFMSRNHKFALFYPDGKNIYKDYKQLELGCTNLDEIDAWKASFLRAGVYPEKQKAQEDESQQEMEDTSIDPQLERQVETIRNLVDSYMRIITKTIKDLVPKAVMHLIVNQTGEFMKDELLAHLYQCGDTDALMEESQIEAQKREEMLRMYHACKEALRIISEVNMSTLGDQPPPLPMSDYRPHPSGPSPVPRPAPAPPGGRQAPMPPRGGPGAPPPPGMRPPPGAPGGGGGMYPPLIPTRPGPGGPPPNMAPPR
binding result [3]: binds
